From US7745390B2, “Antimicrobial peptides” (priority 2005, dated 2010)
pIC50: −log10 of the molar value. Square brackets hold non-standard residues; d marks the D form. Ends that are not written are not given here. Peptide text beside a SMILES is read from it. Chg = N[C@H](C(=O)O)C1CCCCC1

Key:
B. cereus = assay type: cell-based; details: pH 7.2
Summary of the method: (§1)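 Single-well growth assay: peptide + bacteria (~5×10^6 CFU/ml) in 10 mM phosphate pH 7.2/0.03% LB, 3 h 37 °C; add LB, overnight; OD600. MIC = lowest conc., no growth; IC50 = 50% growth vs medium.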

E. coli DH5a = assay type: cell-based; details: DH5a, pH 7.2
Summary of the method: as §1

Salmonella = assay type: cell-based, S. typhimurium; details: pH 7.2
Summary of the method: as §1

bacteria [1] = test: Activity in DMEM and RPMI media (lysis of bacteria); assay type: cell-based; set-up: key to Active in DMEM: YES: Active in DMEM; a blank means no activity; details: for Active in DMEM: Table 2, tested in DMEM and RPMI; for antimicrobial / antibacterial activity: medium not stated
Procedure: (§2) The CFU assay is the “gold standard” for evaluating antibiotics. Briefly, bacteria are grown overnight in rich medium, such as LB, and then diluted and grown in log phase for 2-4 hours. Cultures are set up as above, with the initial culture media being 10 mM phosphate buffer/0.03% LB; DMEM or RPMI; or DMEM or RPMI plus 10% serum (fetal calf, human, or mouse). After various periods of time, but generally 3 hours or less, aliquots are removed, diluted in LB at various dilutions, and plated on LB agar plates. Plates are incubated overnight at 37° C. and counted on an automatic colony counter.
In the column “Active in DMEM”, a blank means no activity. MAP stands for multiple antigenic peptide, where a number of identical peptide chains are synthesized and joined to a common core (like a dendrimer).
The peptides listed in Table 2 were tested in DMEM and RPMI, media that approximate blood and tissue conditions in vivo and those that were active under these conditions are listed in the last column (active in DMEM). […] No peptides that were all L-isomer peptides lysed bacteria in DMEM supplemented with serum.
The hydrophobic moment is a measure of amphipathicity and indicates how well the hydrophobic residues fall on one side of the helix while the hydrophilic residues fall on the opposite side is shown in column 7. This was determined using the Membrane Explorer Program (http://blanco.biomol.uci.edu/mpex/). A high number indicates a high hydrophobic moment. Column 8 again (like Table 2) indicates which of these peptides is active in DMEM.

bacteria [2] = test: Activity in serum containing media (10% FCS in DMEM or RPMI); assay type: cell-based; details: 10% FCS in DMEM or RPMI
Procedure: as §2
Tests were conducted in low salt concentrations so that active peptide candidates could be identified more readily. It is important for in vivo applications that the present antimicrobial peptides be active in physiological salt concentrations (150 mM) as well as in the presence of other tissue components, such as blood plasma (serum). Serum may contain proteases that destroy peptides; the use of D-amino acids can improve protease resistance. See G12.21. […] Also active were G11.6, G11.26, G11.29, G11.30, G11.34, G11.35, G12.11, G12.19, G12.20 and G12.21. […]

| Compound | B. cereus MIC (B. cereus) | pIC50 (B. cereus) | E. coli DH5a MIC (E. coli DH5a) | pIC50 (E. coli DH5a) | pIC50 (Salmonella) | Salmonella MIC (Salmonella) | Active in DMEM (bacteria [1]) | antimicrobial / antibacterial activity (bacteria [1]) | active in serum containing media (bacteria [2]) |
| --- | --- | --- | --- | --- | --- | --- | --- | --- | --- |
| GRSRWRRVSRRFMRR [Peptide G14.11, GRSRWRRVSRRFMRR] | 0.7 µM | 6.35 | 0.7 µM | 6.35 | 6.36 | 0.65 µM | YES | – | – |
| CSCC[C@@H](NC(=O)[C@H]1CCCN1C(=O)[C@@H](CCCCN)NC(=O)[C@@H](CCCCN)NC(=O)[C@@H](CO)NC(=O)[C@H](NC(=O)[C@@H](CCCCN)NC(=O)[C@H](N)CCCCN)C(C)C)C(=O)N[C@H](CCCCN)C(=O)N[C@H](CCCCN)C(=O)N[C@H](Cc1ccc(O)cc1)C(=O)N[C@H](CCCCN)C(=O)N[C@H](CO)C(=O)N[C@H](CCCCN)C(=O)N[C@H](CCCCN)C(=O)N1CCC[C@@H]1C(=O)N[C@H](CCCCN)C(=O)N[C@H](CCCCN)C(=O)N[C@H](CC(C)C)C(=O)N[C@@H](C(=O)O)C(C)C [Peptide G12.28, kkvskkpmkkykskkpkklv] (H-[dK][dK][dV][dS][dK][dK][dP][dM][dK][dK][dY][dK][dS][dK][dK][dP][dK][dK][dL][dV]-OH; N-terminus and C-terminus assumed) | – | – | – | – | – | – | – | inactive peptide | – |
| CSCC[C@@H](NC(=O)[C@H]1CCCN1C(=O)[C@H]1CCCN1C(=O)[C@@H](CCCNC(=N)N)NC(=O)[C@@H](CO)NC(=O)[C@H](NC(=O)[C@@H](CCCNC(=N)N)NC(=O)[C@H](N)CCCNC(=N)N)C(C)C)C(=O)N[C@H](CCCNC(=N)N)C(=O)N[C@H](CCCNC(=N)N)C(=O)N[C@H](Cc1ccc(O)cc1)C(=O)N[C@H](CCCNC(=N)N)C(=O)N[C@H](CO)C(=O)N[C@H](CCCNC(=N)N)C(=O)N[C@H](CCCNC(=N)N)C(=O)N1CCC[C@@H]1C(=O)N[C@H](CCCNC(=N)N)C(=O)N[C@H](CCCNC(=N)N)C(=O)N[C@H](CC(C)C)C(=O)N[C@@H](C(=O)O)C(C)C [Peptide G12.26, rrvsrppmrryrsrrprrlv] (H-[dR][dR][dV][dS][dR][dP][dP][dM][dR][dR][dY][dR][dS][dR][dR][dP][dR][dR][dL][dV]-OH; N-terminus and C-terminus assumed) | 0.35 µM | > 7.11 | <.078 µM | > 7.11 | 7.00 | 0.3 µM | YES | loses some antibacterial activity compared to G12.21 | – |
| CC(C)C[C@@H](NC(=O)[C@@H](CCCNC(=N)N)NC(=O)[C@@H](CCCNC(=N)N)NC(=O)[C@H]1CCCN1C(=O)[C@@H](CCCNC(=N)N)NC(=O)[C@@H](CCCNC(=N)N)NC(=O)[C@@H](CO)NC(=O)[C@@H](CCCNC(=N)N)NC(=O)[C@@H](Cc1ccc(O)cc1)NC(=O)[C@@H](CCCNC(=N)N)NC(=O)[C@@H](CCCNC(=N)N)NC(=O)[C@H]1CCCN1C(=O)[C@H]1CCCN1C(=O)[C@H]1CCCN1C(=O)[C@@H](CCCNC(=N)N)NC(=O)[C@@H](CO)NC(=O)[C@H](NC(=O)[C@@H](CCCNC(=N)N)NC(=O)[C@H](N)CCCNC(=N)N)C(C)C)C(=O)N[C@@H](C(=O)O)C(C)C [Peptide G12.25, rrvsrppprryrsrrprrlv] (H-[dR][dR][dV][dS][dR][dP][dP][dP][dR][dR][dY][dR][dS][dR][dR][dP][dR][dR][dL][dV]-OH; N-terminus and C-terminus assumed) | <.078 µM | > 7.11 | 0.15 µM | > 7.11 | 7.00 | 1.25 µM | YES | has lost much of its antibacterial activity | – |
| QRSVSRAATRVSRTGRSRWRRVSRRFMRR [Peptide G8.9] | 0.7 µM | 6.35 | 0.7 µM | 6.35 | 6.66 | 0.35 µM | YES | – | – |
| QRSVSRPPTRVSRTGRSRWRDVSRRFMRR [Peptide G8.12] | 0.35 µM | 6.68 | 0.35 µM | 6.68 | 6.68 | 0.35 µM | YES | – | – |
| RRVSRRFMRRD-NH2 [G11.30 CYC, RRVSRRFMRRD] | >10 µM | 5.12 | 5.7 µM | 5.46 | 5.11 | >10 µM | – | – | active |
| CSCC[C@@H]1NC(=O)[C@H](Cc2ccccc2)NC(=O)[C@H](CCCCN)NC(=O)[C@H](CCCCN)NC(=O)[C@H](CO)NC(=O)[C@H](C(C)C)NC(=O)[C@H](CCCCN)NC(=O)[C@H](CCCCN)NC(=O)[C@H](CC(N)=O)NC(=O)[C@H](CCCCN)NC(=O)[C@H](CCCCN)NC(=O)[C@H](CCSC)NC(=O)[C@H](Cc2ccccc2)NC(=O)[C@H](CCCCN)NC(=O)[C@H](CCCCN)NC(=O)[C@H](CO)NC(=O)[C@H](C(C)C)NC(=O)[C@H](CCCCN)NC(=O)[C@H](CCCCN)NC(=O)[C@H](CO)NC(=O)CNC(=O)[C@H](CCCCN)NC(=O)[C@H](CCCCN)NC1=O [G11.32 CYC] | 0.35 µM | 6.68 | 0.35 µM | 6.70 | 6.68 | 0.35 µM | YES | – | – |
| CSCC[C@H](NC(=O)[C@H](Cc1ccccc1)NC(=O)[C@H](CCCCN)NC(=O)[C@H](CCCCN)NC(=O)[C@H](CO)NC(=O)[C@@H](NC(=O)[C@H](CCCCN)NC(=O)[C@H](CCCCN)NC(=O)[C@H](CO)NC(=O)CNC(=O)[C@H](CCCCN)NC(=O)[C@H](CCCCN)NC(=O)[C@H](CCSC)NC(=O)[C@H](Cc1ccccc1)NC(=O)[C@H](CCCCN)NC(=O)[C@H](CCCCN)NC(=O)[C@H](CO)NC(=O)[C@@H](NC(=O)[C@H](CCCCN)NC(=O)[C@@H](N)CCCCN)C(C)C)C(C)C)C(=O)N[C@@H](CCCCN)C(=O)N[C@@H](CCCCN)C(=O)O [Peptide G11.15] | >10 µM | 5.23 | 1.38 µM | 6.10 | 6.39 | 0.7 µM | – | – | – |
| QRSVSRAATRVSRTGRSRWRDVSRRFMRR [Peptide G8.4] | 0.7 µM | 6.35 | 0.7 µM | 6.35 | 6.68 | 0.35 µM | – | – | – |
| CSCC[C@H](NC(=O)[C@H](Cc1ccccc1)NC(=O)[C@H](CCCNC(=N)N)NC(=O)[C@H](CCCNC(=N)N)NC(=O)[C@@H](NC(=O)[C@@H](NC(=O)[C@H](CCCNC(=N)N)NC(=O)[C@@H](N)CCCNC(=N)N)C(C)C)C1CCCCC1)C(=O)N[C@@H](CCCNC(=N)N)C(=O)N[C@@H](CCCNC(=N)N)C(=O)O [Peptide G11.18, RRV-Chg-RRFMRR] (H-RRV[Chg]RRFMRR-OH; N-terminus and C-terminus assumed) | 5.7 µM | 5.45 | 5.65 µM | 5.47 | 6.06 | 1.4 µM | – | – | – |
| QRSVSNAATRVSRTGRSRWRDVSRRFMRR [Peptide G8.3] | 1.25 µM | 6.15 | 0.7 µM | 6.26 | 6.35 | 0.67 µM | – | – | – |
| QRAVARAATRVARTGRARWRDVARRFMRR [Peptide G8.7] | 0.7 µM | 6.35 | 1.4 µM | 6.07 | 6.38 | 0.7 µM | – | – | – |
| RRVVRRFMRR [Peptide G11.16, RRVVRRFMRR] | >10 µM | 5.11 | 1.4 µM | 6.10 | 5.46 | 5.6 µM | – | – | – |
| RRVSRRFMRRYQSRVIQGLV [Peptide G12.6] | 0.7 µM | 6.38 | 1.45 µM | 6.05 | 6.05 | 1.45 µM | – | – | – |
| RDVCRNFMRR [Peptide G11, RDVCRNFMRR, reference compound] | >10 µM | < 5.00 | >10 µM | < 5.00 | < 5.00 | >10 µM | – | – | – |
